Test results from the NIST ThermoML archive (doi:10.1021/acs.jced.8b00975).
± gives the expanded uncertainty stated by the source.

Assay: xn = mol fraction of the nth substance listed
Details: Liquid, Vibrating tube method

C=C(C)C(=O)OCCN(C)C [2-(dimethylamino)ethyl methylpropenoate] + CCO
mass density [kg/m3]
Details | 100 kPa | 5000 kPa | 10000 kPa | 15000 kPa | 20000 kPa | 25000 kPa | 30000 kPa | 35000 kPa
293.15 K, x1 = 0.0298 | 802.7 ± 0.51 | 807.13 ± 0.52 | 811.22 ± 0.53 | 815.04 ± 0.54 | 818.66 ± 0.55 | 822.14 ± 0.56 | 825.55 ± 0.57 | 828.95 ± 0.58
293.15 K, x1 = 0.0598 | 814.88 ± 0.51 | 819.12 ± 0.52 | 823.12 ± 0.52 | 826.9 ± 0.53 | 830.51 ± 0.54 | 834 ± 0.55 | 837.41 ± 0.56 | 840.78 ± 0.58
293.15 K, x1 = 0.0999 | 829.26 ± 0.51 | 833.46 ± 0.52 | 837.4 ± 0.52 | 841.12 ± 0.53 | 844.67 ± 0.54 | 848.1 ± 0.55 | 851.44 ± 0.56 | 854.75 ± 0.57
293.15 K, x1 = 0.1997 | 856.9 ± 0.51 | 861.05 ± 0.52 | 864.9 ± 0.52 | 868.5 ± 0.53 | 871.93 ± 0.53 | 875.24 ± 0.54 | 878.49 ± 0.54 | 881.75 ± 0.55
293.15 K, x1 = 0.3001 | 876.95 ± 0.51 | 880.93 ± 0.52 | 884.66 ± 0.52 | 888.19 ± 0.52 | 891.58 ± 0.53 | 894.86 ± 0.53 | 898.09 ± 0.54 | 901.32 ± 0.54
293.15 K, x1 = 0.3966 | 891.39 ± 0.51 | 895.28 ± 0.52 | 898.93 ± 0.52 | 902.38 ± 0.52 | 905.7 ± 0.53 | 908.93 ± 0.53 | 912.15 ± 0.54 | 915.39 ± 0.54
293.15 K, x1 = 0.4472 | 897.49 ± 0.51 | 901.33 ± 0.52 | 904.98 ± 0.52 | 908.47 ± 0.52 | 911.83 ± 0.53 | 915.1 ± 0.53 | 918.3 ± 0.53 | 921.47 ± 0.54
293.15 K, x1 = 0.4982 | 902.96 ± 0.51 | 906.87 ± 0.52 | 910.51 ± 0.52 | 913.95 ± 0.52 | 917.24 ± 0.53 | 920.43 ± 0.53 | 923.58 ± 0.53 | 926.74 ± 0.54
293.15 K, x1 = 0.55 | 907.68 ± 0.51 | 911.66 ± 0.52 | 915.32 ± 0.52 | 918.74 ± 0.53 | 921.98 ± 0.53 | 925.14 ± 0.53 | 928.28 ± 0.53 | 931.5 ± 0.54
293.15 K, x1 = 0.5964 | 911.67 ± 0.52 | 915.5 ± 0.52 | 919.12 ± 0.52 | 922.56 ± 0.53 | 925.87 ± 0.53 | 929.09 ± 0.53 | 932.25 ± 0.54 | 935.39 ± 0.54
293.15 K, x1 = 0.6982 | 918.77 ± 0.52 | 922.55 ± 0.52 | 926.15 ± 0.53 | 929.6 ± 0.53 | 932.93 ± 0.53 | 936.16 ± 0.54 | 939.33 ± 0.54 | 942.44 ± 0.54
293.15 K, x1 = 0.801 | 924.6 ± 0.53 | 928.44 ± 0.53 | 932.04 ± 0.53 | 935.46 ± 0.54 | 938.75 ± 0.54 | 941.94 ± 0.54 | 945.09 ± 0.54 | 948.24 ± 0.55
293.15 K, x1 = 0.8977 | 929.03 ± 0.53 | 932.82 ± 0.54 | 936.35 ± 0.54 | 939.69 ± 0.54 | 942.92 ± 0.55 | 946.09 ± 0.55 | 949.28 ± 0.55 | 952.57 ± 0.55
293.15 K, x1 = 0.9283 | 930.22 ± 0.54 | 934.07 ± 0.54 | 937.67 ± 0.54 | 941.06 ± 0.55 | 944.32 ± 0.55 | 947.48 ± 0.55 | 950.62 ± 0.56 | 953.79 ± 0.56
293.15 K, x1 = 0.9578 | 931.42 ± 0.54 | 935.21 ± 0.54 | 938.78 ± 0.55 | 942.2 ± 0.55 | 945.49 ± 0.55 | 948.71 ± 0.56 | 951.88 ± 0.56 | 955.05 ± 0.56
303.15 K, x1 = 0.03 | 794.45 ± 0.51 | 798.97 ± 0.52 | 803.18 ± 0.53 | 807.13 ± 0.54 | 810.87 ± 0.55 | 814.43 ± 0.56 | 817.87 ± 0.58 | 821.22 ± 0.59
303.15 K, x1 = 0.0603 | 806.55 ± 0.51 | 811.05 ± 0.52 | 815.24 ± 0.53 | 819.16 ± 0.54 | 822.87 ± 0.55 | 826.4 ± 0.56 | 829.79 ± 0.57 | 833.08 ± 0.58
303.15 K, x1 = 0.1002 | 820.45 ± 0.51 | 824.89 ± 0.52 | 829.01 ± 0.52 | 832.87 ± 0.53 | 836.53 ± 0.54 | 840.03 ± 0.55 | 843.44 ± 0.56 | 846.8 ± 0.57
303.15 K, x1 = 0.2021 | 848.13 ± 0.51 | 852.39 ± 0.52 | 856.38 ± 0.52 | 860.15 ± 0.53 | 863.75 ± 0.54 | 867.22 ± 0.54 | 870.62 ± 0.55 | 873.98 ± 0.56
303.15 K, x1 = 0.3014 | 867.56 ± 0.51 | 871.73 ± 0.52 | 875.66 ± 0.52 | 879.39 ± 0.53 | 882.96 ± 0.53 | 886.41 ± 0.54 | 889.8 ± 0.54 | 893.16 ± 0.55
303.15 K, x1 = 0.4003 | 882.15 ± 0.51 | 886.21 ± 0.52 | 890.08 ± 0.52 | 893.8 ± 0.53 | 897.38 ± 0.53 | 900.86 ± 0.54 | 904.27 ± 0.54 | 907.64 ± 0.54
303.15 K, x1 = 0.4499 | 888.16 ± 0.51 | 892.11 ± 0.52 | 895.91 ± 0.52 | 899.59 ± 0.53 | 903.17 ± 0.53 | 906.65 ± 0.53 | 910.06 ± 0.54 | 913.41 ± 0.54
303.15 K, x1 = 0.5006 | 893.42 ± 0.51 | 897.42 ± 0.52 | 901.25 ± 0.52 | 904.92 ± 0.53 | 908.47 ± 0.53 | 911.94 ± 0.53 | 915.35 ± 0.54 | 918.74 ± 0.54
303.15 K, x1 = 0.5488 | 897.81 ± 0.52 | 901.82 ± 0.52 | 905.64 ± 0.52 | 909.31 ± 0.53 | 912.87 ± 0.53 | 916.34 ± 0.53 | 919.76 ± 0.54 | 923.18 ± 0.54
303.15 K, x1 = 0.5998 | 902.09 ± 0.52 | 906.13 ± 0.52 | 909.95 ± 0.52 | 913.6 ± 0.53 | 917.13 ± 0.53 | 920.59 ± 0.54 | 924.04 ± 0.54 | 927.53 ± 0.54
303.15 K, x1 = 0.703 | 909.18 ± 0.52 | 913.16 ± 0.52 | 916.96 ± 0.53 | 920.63 ± 0.53 | 924.18 ± 0.54 | 927.67 ± 0.54 | 931.11 ± 0.54 | 934.54 ± 0.55
303.15 K, x1 = 0.8012 | 914.76 ± 0.53 | 918.73 ± 0.53 | 922.51 ± 0.53 | 926.15 ± 0.54 | 929.69 ± 0.54 | 933.18 ± 0.55 | 936.65 ± 0.55 | 940.15 ± 0.55
303.15 K, x1 = 0.9025 | 919.51 ± 0.53 | 923.46 ± 0.54 | 927.24 ± 0.54 | 930.9 ± 0.55 | 934.45 ± 0.55 | 937.94 ± 0.55 | 941.4 ± 0.56 | 944.86 ± 0.56
303.15 K, x1 = 0.9288 | 920.51 ± 0.54 | 924.41 ± 0.54 | 928.15 ± 0.54 | 931.75 ± 0.55 | 935.26 ± 0.55 | 938.73 ± 0.56 | 942.19 ± 0.56 | 945.69 ± 0.56
303.15 K, x1 = 0.9594 | 921.58 ± 0.54 | 925.48 ± 0.54 | 929.24 ± 0.55 | 932.89 ± 0.55 | 936.45 ± 0.56 | 939.94 ± 0.56 | 943.39 ± 0.56 | 946.82 ± 0.57
313.15 K, x1 = 0.0301 | 785.54 ± 0.51 | 790.39 ± 0.52 | 794.86 ± 0.53 | 799.04 ± 0.54 | 802.99 ± 0.55 | 806.8 ± 0.57 | 810.55 ± 0.58 | 814.3 ± 0.6
313.15 K, x1 = 0.0604 | 797.46 ± 0.51 | 802.1 ± 0.52 | 806.49 ± 0.53 | 810.66 ± 0.54 | 814.64 ± 0.55 | 818.45 ± 0.56 | 822.15 ± 0.58 | 825.75 ± 0.59
313.15 K, x1 = 0.1009 | 811.29 ± 0.51 | 815.85 ± 0.52 | 820.14 ± 0.53 | 824.2 ± 0.54 | 828.09 ± 0.55 | 831.85 ± 0.56 | 835.51 ± 0.57 | 839.13 ± 0.58
313.15 K, x1 = 0.2013 | 838.49 ± 0.51 | 842.83 ± 0.52 | 846.98 ± 0.52 | 850.95 ± 0.53 | 854.76 ± 0.54 | 858.45 ± 0.55 | 862.02 ± 0.55 | 865.49 ± 0.56
313.15 K, x1 = 0.302 | 858.03 ± 0.51 | 862.37 ± 0.52 | 866.49 ± 0.52 | 870.43 ± 0.53 | 874.22 ± 0.53 | 877.88 ± 0.54 | 881.45 ± 0.55 | 884.95 ± 0.55
313.15 K, x1 = 0.401 | 872.35 ± 0.51 | 876.61 ± 0.52 | 880.69 ± 0.52 | 884.61 ± 0.53 | 888.4 ± 0.53 | 892.06 ± 0.54 | 895.62 ± 0.54 | 899.08 ± 0.55
313.15 K, x1 = 0.4507 | 878.39 ± 0.51 | 882.61 ± 0.52 | 886.65 ± 0.52 | 890.55 ± 0.53 | 894.31 ± 0.53 | 897.94 ± 0.54 | 901.47 ± 0.54 | 904.89 ± 0.55
313.15 K, x1 = 0.4984 | 883.4 ± 0.52 | 887.63 ± 0.52 | 891.71 ± 0.52 | 895.63 ± 0.53 | 899.4 ± 0.53 | 903.03 ± 0.54 | 906.52 ± 0.54 | 909.87 ± 0.55
313.15 K, x1 = 0.553 | 888.58 ± 0.52 | 892.77 ± 0.52 | 896.81 ± 0.52 | 900.7 ± 0.53 | 904.45 ± 0.53 | 908.07 ± 0.54 | 911.57 ± 0.54 | 914.96 ± 0.55
313.15 K, x1 = 0.6053 | 892.9 ± 0.52 | 897.11 ± 0.52 | 901.15 ± 0.53 | 905.03 ± 0.53 | 908.77 ± 0.53 | 912.39 ± 0.54 | 915.89 ± 0.54 | 919.29 ± 0.55
313.15 K, x1 = 0.7041 | 899.74 ± 0.52 | 903.88 ± 0.53 | 907.89 ± 0.53 | 911.79 ± 0.53 | 915.55 ± 0.54 | 919.19 ± 0.54 | 922.7 ± 0.55 | 926.09 ± 0.55
313.15 K, x1 = 0.8027 | 905.5 ± 0.53 | 909.63 ± 0.53 | 913.65 ± 0.54 | 917.54 ± 0.54 | 921.29 ± 0.54 | 924.91 ± 0.55 | 928.37 ± 0.55 | 931.68 ± 0.56
313.15 K, x1 = 0.9016 | 910.19 ± 0.53 | 914.28 ± 0.54 | 918.27 ± 0.54 | 922.15 ± 0.55 | 925.92 ± 0.55 | 929.56 ± 0.56 | 933.08 ± 0.56 | 936.46 ± 0.56
313.15 K, x1 = 0.9342 | 911.48 ± 0.54 | 915.6 ± 0.54 | 919.6 ± 0.55 | 923.48 ± 0.55 | 927.25 ± 0.56 | 930.89 ± 0.56 | 934.42 ± 0.56 | 937.83 ± 0.57
313.15 K, x1 = 0.9607 | 912.61 ± 0.54 | 916.71 ± 0.54 | 920.71 ± 0.55 | 924.61 ± 0.55 | 928.4 ± 0.56 | 932.04 ± 0.56 | 935.54 ± 0.57 | 938.88 ± 0.57
